# Measured values reported in BindingDB's records for doi:10.7270/Q2736PBV (Broad Institute, 2009).
# Target: T1, Streptokinase A (Streptococcus pyogenes serotype M1, UniProt P10520)
# T1 sequence (P10520 whole entry): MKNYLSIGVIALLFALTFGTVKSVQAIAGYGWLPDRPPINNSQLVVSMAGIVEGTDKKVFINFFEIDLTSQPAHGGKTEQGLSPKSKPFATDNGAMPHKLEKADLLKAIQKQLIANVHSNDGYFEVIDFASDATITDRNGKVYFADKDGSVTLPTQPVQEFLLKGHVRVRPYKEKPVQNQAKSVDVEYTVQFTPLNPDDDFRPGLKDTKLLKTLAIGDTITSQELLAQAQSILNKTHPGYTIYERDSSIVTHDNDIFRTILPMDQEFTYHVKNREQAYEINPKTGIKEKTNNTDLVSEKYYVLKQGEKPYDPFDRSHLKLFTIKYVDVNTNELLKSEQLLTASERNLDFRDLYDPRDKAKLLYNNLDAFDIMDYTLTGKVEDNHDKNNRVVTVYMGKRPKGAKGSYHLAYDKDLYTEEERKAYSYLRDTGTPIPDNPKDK
# Assay: S. pyogenes streptokinase expression inhibitors, potency, dose response, plasminogen activation absorbance, OD405 (AID 1914)
row,SMILES,EC50
1,"O=C1NC(=S)N(C2CCCCC2)C(=O)C1=CNNC(=O)c1ccccc1 [N'-[(E)-(1-cyclohexyl-4,6-dioxo-2-sulfanylidene-1,3-diazinan-5-ylidene)methyl]benzohydrazide]",> 150 µM
2,"O=C1NC(=O)N(Cc2ccccc2)C(=O)C1=CNNC(=O)c1ccccc1 [N'-[(E)-[2,4,6-tris(oxidanylidene)-1-(phenylmethyl)-1,3-diazinan-5-ylidene]methyl]benzohydrazide]",> 150 µM
3,"CN(C)S(=O)(=O)c1ccc(-c2csc(N=NCc3ccc(O)cc3)n2)cc1 [N,N-dimethyl-4-[2-[2-[(4-oxidanylidenecyclohexa-2,5-dien-1-ylidene)methyl]hydrazinyl]-1,3-thiazol-4-yl]benzenesulfonamide]",> 150 µM
4,Cc1[nH]c2ccccc2c1CN=Nc1nc2ccccc2[nH]1 [N-(1H-Benzoimidazol-2-yl)-N'-[1-(2-methyl-1H-indol-3-yl)-meth-(E)-ylidene]-hydrazine],> 150 µM
5,O=C1Nc2ccccc2C1=NNc1ccc(S(=O)(=O)Nc2cccc(Cl)c2)cc1[N+](=O)[O-] [N-(3-chlorophenyl)-3-nitro-4-[2-(2-oxoindol-3-yl)hydrazinyl]benzenesulfonamide],27.4 µM
6,Cc1nc(N=NC(C)c2ccc(Br)cc2)cc(N2CCCCC2)n1 (centres undefined) [N-[1-(4-bromophenyl)ethylideneamino]-2-methyl-6-piperidin-1-ylpyrimidin-4-amine],46.7 µM
7,"CC(NNC(=O)c1cc2ccccc2cc1O)=C1C(=O)c2ccccc2C1=O [N-[1-[1,3-bis(oxidanylidene)inden-2-yl]ethylideneamino]-3-oxidanyl-naphthalene-2-carboxamide]",> 150 µM
8,Cc1ccc2c(c1)=C(NNC(=O)c1ccc(NS(=O)(=O)c3cccs3)cc1)C(=O)N=2 [N-[4-[[(5-methyl-2-oxoindol-3-yl)amino]carbamoyl]phenyl]thiophene-2-sulfonamide],> 150 µM
9,"O=C(CCCCCNC(=O)c1ccccc1)NNC1=c2cc(Br)cc(Br)c2=NC1=O [N-[6-[2-[5,7-bis(bromanyl)-2-oxidanylidene-indol-3-yl]hydrazinyl]-6-oxidanylidene-hexyl]benzamide]",> 150 µM
10,"CN1c2ccsc2C(NNc2ccccc2)=CS1(=O)=O [N-[(1-methyl-2,2-dioxo-4-thieno[3,2-c]thiazinylidene)amino]aniline]",4.12 µM
11,Cc1cc(N=NCc2cccc(Br)c2)nc2ccccc12 [N-[(3-bromophenyl)methylideneamino]-4-methyl-2-quinolinamine],> 150 µM
12,"O=[N+]([O-])c1cccc(CN=Nc2nc(N3CCCCC3)nc(N3CCCCC3)n2)c1 [N-[(3-nitrophenyl)methylideneamino]-4,6-bis(1-piperidinyl)-1,3,5-triazin-2-amine]",39.4 µM
13,CCCCN1C(=O)/C(=N\NC(=O)c2ccccc2NS(=O)(=O)c2cccs2)c2ccccc21 [N-[(Z)-(1-butyl-2-oxoindol-3-ylidene)amino]-2-(thiophen-2-ylsulfonylamino)benzamide],> 150 µM
14,"Cn1cnnc1SCc1ccc(C(=O)N/N=C2\C(=O)N(Cc3ccc(Cl)cc3)c3ccccc32)cc1 [N-[(Z)-[1-[(4-chlorophenyl)methyl]-2-oxidanylidene-indol-3-ylidene]amino]-4-[(4-methyl-1,2,4-triazol-3-yl)sulfanylmethyl]benzamide]",18 µM
15,Cc1ccc(-c2nn(-c3ccccc3)cc2CN=O)cc1 [N-[[3-(4-methylphenyl)-1-phenylpyrazol-4-yl]methylidene]hydroxylamine],> 150 µM
16,"CN(C)CCN=CC(C(=O)Nc1ccc(Cl)cc1Cl)C(=O)Nc1ccc(Cl)cc1Cl [N~1~,N~3~-bis(2,4-dichlorophenyl)-2-({[2-(dimethylamino)ethyl]amino}methylene)malonamide]",> 150 µM
17,N#CC1C(=N)SC(=N)C(C#N)C1c1c(Cl)cccc1Cl (centres undefined) [SMR000009709],93.5 µM
18,CCN(CC)c1ccc(C=NC(C#N)C(=N)C#N)cc1 (centres undefined) [SMR000023871],> 150 µM
19,Fc1ccc(Br)cc1C1CC(c2ccc(Br)s2)=Nc2ncnn21 (centres undefined) [SMR000032932],> 150 µM
20,C=CCN1C(=O)NC(=O)C(=C(C)Nc2ccc(N(CC)CC)cc2)C1=O [SMR000043704],> 150 µM
21,CCCCN1C(=O)NC(=O)C(=C(C)Nc2ccc(OCC)cc2)C1=O [SMR000058103],> 150 µM
22,CCc1ccc(C2C(C#N)C(=N)C(C#N)(C#N)C3=CCC(C(C)(C)C)CC32)cc1 (centres undefined) [SMR000115124],5.84 µM

row,SMILES,EC50
1,CCCc1sc(N=NCc2ccccn2)nc1-c1ccc(F)cc1 [SMR000116776],> 150 µM
2,CCCc1sc(N=NCc2ccccn2)nc1-c1ccc(Br)cc1 [SMR000116777],> 150 µM
3,Oc1ccc2ccccc2c1CN=Nc1nnc(-c2ncc[nH]2)c2ccccc12 [SMR000151639],5.52 µM
4,O=C1C2C(=NC(=S)NC2c2ccc(Cl)cc2)NC(c2ccc(Cl)cc2)N1c1ccc(Cl)cc1 (centres undefined) [SMR000155440],> 150 µM
5,CCn1cc(C(=O)O)c(=O)c2cc(F)c(N=NCc3ccccc3[N+](=O)[O-])cc21 [SMR000171611],> 150 µM
6,Cc1cc(=O)n(-c2nc(-c3ccccc3)cs2)[nH]1 [SMR000175888],10 µM
7,C=c1[nH][nH]c(=O)c1=Cc1cn(-c2ccccc2)nc1-c1ccc(Cl)cc1 [SMR000193592],4.83 µM
8,CC(Oc1ccc(Cl)cc1Cl)C(=O)Nc1cc(=O)n(-c2ccccc2)[nH]1 (centres undefined) [SMR000195064],123 µM
9,COc1ccccc1CN=Nc1cc(C)nc(-n2nc(C)cc2C)n1 [SMR000212744],> 150 µM
10,Oc1ccc(CN=Nc2nc(-c3ccc(Cl)cc3)cc(C(F)(F)F)n2)cc1 [SMR000212812],16.3 µM
11,O=C(CC1=NC2(CCCC2)Cc2ccccc21)C(=O)NN=Cc1ccccc1O [SMR000219463],> 150 µM
12,COc1cc(CN=Nc2ncnc3sc4c(c23)CCC4)ccc1O [SMR000242188],5.06 µM
13,CN1C(=O)/C(=N\NC(=O)c2cc(-c3cccs3)nc3ccccc23)c2ccccc21 [SMR000242891],> 150 µM
14,CN1C(=O)C(=NNc2nc(-c3ccccc3)cs2)c2ccccc21 [SMR000243133],7.09 µM
15,CC(C)c1ccc2c(c1)=C(NNC(=O)c1cccc(S(=O)(=O)N3CCCCC3)c1)C(=O)N=2 [SMR000243307],> 150 µM
16,CC1=C2C(=NC3=C(C(=O)c4ccccc43)C2c2c(C)cc(C)cc2C)N(c2ccccn2)N1 (centres undefined) [SMR000263933],22.2 µM
17,CC(=N)C(C#N)C(=O)COC(=O)c1cc(-c2ccc(Br)cc2)nc2ccccc12 (centres undefined) [SMR000264784],4.43 µM
18,Cc1cc2nc(-n3c(O)c[nH]c3=S)sc2cc1C [SMR000272190],> 150 µM
19,COc1cccc(CN=Nc2cc(C)nc(-c3ccccc3O)n2)c1O [SMR000274167],> 150 µM
20,CCC1C(c2ccccc2)NC(c2ccccc2)C(CC)C1N=O (centres undefined) [SMR000283074],13.3 µM
21,Oc1nc(Nc2ccccn2)sc1Cc1ccc(Cl)cc1 [SMR000288952],> 150 µM
22,Cc1ccccc1CN=Nc1nc2ccccc2[nH]1 [SMR000305031],> 150 µM

row,SMILES,EC50
1,O=C(O)COc1ccc(CN=Nc2nc(Nc3ccccc3)nc(N3CCCCC3)n2)cc1 [SMR000312685],> 150 µM
2,CN1C(=O)C(=NNC(=S)Nc2ccccc2F)c2cc(S(=O)(=O)N3CCOCC3)ccc21 [SMR000314843],> 150 µM
3,O=C1C(=NNC(=S)Nc2ccccc2F)c2ccccc2N1Cc1ccccc1 [SMR000314861],> 150 µM
4,Cc1cc(C)n(C(=O)C(C#N)N=Nc2cc(Cl)cc(Cl)c2)n1 (centres undefined) [SMR000335596],> 150 µM
5,N#Cc1c(-c2c(Cl)cccc2Cl)noc1CC=Nc1ccc(C(=O)O)cc1 [SMR000337673],> 150 µM
6,CC(N=Nc1nc2ccccc2[nH]1)c1ccc2c(c1)OCO2 (centres undefined) [SMR000354227],> 150 µM
7,O=C(N/N=C/C1C=C(Cl)C=C([N+](=O)[O-])C1=O)c1ccccc1NS(=O)(=O)c1cccs1 (centres undefined) [SMR000364876],> 150 µM
8,COc1ccc(NC(=S)NNC2=c3ccccc3=NC2=O)cc1 [SMR000413743],> 150 µM
9,O=C1C(Br)=CC([N+](=O)[O-])=C/C1=C\NNC(=O)C12CC3CCC(CC(C3)C1)C2 [SMR000414723],> 150 µM
10,Cc1ccc(O)c(C2CC(c3ccc(Cl)cc3)N=N2)c1 (centres undefined) [SMR000414826],> 150 µM
11,CC1CC(C)(C)N2C(=O)/C(=N\NC(N)=S)c3cccc1c32 (centres undefined) [SMR000414933],> 150 µM
12,CC1=CC(C)(C)N2C(=O)/C(=N\N)c3c(C)c(C)cc1c32 [SMR000414935],16.3 µM
13,CCCCCCC(=O)NNC=C1C(=O)NC(=S)N(C(C)CC)C1=O (centres undefined) [SMR000439319],> 150 µM
14,COc1cccc(C(=O)Oc2ccc(CN=Nc3ccc(C(=O)O)cc3)cc2OC)c1 [SMR000502791],> 150 µM
15,Cc1cc(C)c2c(c1)C(=NNc1ccc(C(=O)O)cc1)C(O)=N2 [SMR000592331],> 150 µM
16,O=C1C(=O)N(Cc2ccco2)C(c2cccc(Cl)c2)C1C(=O)c1ccco1 (centres undefined) [SMR000665558],> 150 µM
17,O=C(CSc1ccc(Cl)cc1)Nc1cc(=O)n(-c2ccccc2)[nH]1 [SMR000672521],9.33 µM
18,CNC(=O)c1c(NC(=O)c2ccc(-n3c(O)ccc3O)cc2)sc2c1CCC(C)C2 (centres undefined) [SMR000806319],> 150 µM
19,CSc1cccc(-c2nnc(NC(=O)c3cccc(-n4c(O)ccc4O)c3)o2)c1 [SMR000811880],> 150 µM
20,"CC(=NNC(=N)Sc1cc(O)n(-c2ccc(Br)cc2)c1O)c1cccs1 [[1-(4-bromophenyl)-2,5-bis(oxidanylidene)pyrrolidin-3-yl] N''-(1-thiophen-2-ylethylideneamino)carbamimidothioate]",9.08 µM
